The values that follow come from PubChem BioAssay (NCI).

Where “and” joins values, the source holds several entries; their conditions need not be identical. Equal values may be shown once.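 A five-concentration, 48-hour dose response in 96-well plates underlies each endpoint, interpolated linearly between surrounding concentrations. At the GI50, growth is halved. TGI is the concentration that stops growth completely.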 Some results are limits rather than exact numbers.

What all share (assay): NCI tumour cell line growth inhibition, 48 h
Assay [1] relates to P388/ADR leukemia.
Assay [2] has as its system SN12K1 renal.
Assay [3] concerns HS 578T breast.
Assay [4] deals with DU-145 prostate.
Assay [5] relates to MDA-N.
Assay [6] has as its system P388 leukemia.
Assay [7] deals with LXFL 529 NSCLC.
For assay [8], the system named is RXF-631 renal.
The subject of assay [9] is DMS 114 small cell lung.
The subject of assay [10] is MDA-MB-231 breast.

As to `CCC1(OC(=O)CN)C(=O)OCc2c1cc1n(c2=O)Cc2cc3cc4c(cc3nc2-1)OCO4` (stereo not drawn), in assay [1], the GI50 is less than 10 nM and the TGI is less than 10 nM. Also, in assay [2], the GI50 is less than 10 nM; the TGI is 225 nM and 1040 nM.

Regarding `CCN(CCCl)c1cccc(NC(=O)c2ccc(C(=O)Nc3cccc(CN(C)C)c3)cc2)c1`, the TGI in assay [3] is 399 nM; in assay [4], 12200 nM; in [5], 286 nM.

For the compound `CS(=O)(=O)[O-].CS(=O)(=O)[O-].NC1CCCCC1N.[Pt+4]` (stereo not drawn), the GI50 in [6] is 4810 nM; in [1], 43000 nM; in [2], greater than 100000 nM. In addition, the figures for the TGI in assay [6], in assay [1] and in assay [2] were greater than 55700 nM, greater than 100000 nM and greater than 100000 nM, respectively.

As for `CCN(CC)/[N+]([O-])=N/O`, the TGI in assay [7] and in assay [8] was greater than 100000 nM throughout.

Regarding `Cn1c(=O)n(CC2CS2)c2ccccc21` (stereo not drawn), the TGI in assay [7] and in assay [9] was greater than 100000 nM throughout.

On to `CC1(C)[C@@H](OC(N)=O)C=C[C@]2(CO)[C@H]3CC[C@]4(C)[C@@H](c5ccc(=O)oc5)[C@@H](Cl)C[C@]4(O)C3=CC[C@@H]12`, for which the GI50 in assay [10] is 17 nM and 2.5 nM; in assay [3] it was less than 0.1 nM; in [4], less than 0.1 nM. Moreover, the TGI in [10] is 58.8 nM and 159 nM; in [3], 8.37 nM; in assay [4], 1.17 nM.
